Measured values taken from PMC8808171, “Nonselective TRPC channel inhibition and suppression of aminoglycoside-induced premature termination codon readthrough by the small molecule AC1903” (The Journal of Biological Chemistry, 2022).

Columns and labels:
TRPC3:C3 = molecular target: T1, TRPC3:C3 (Homo sapiens, UniProt Q13507); test: [Ca2+]i recordings (Fura-2), TRPC3:C3 in HEK T-REx cells; format: cell-based
T1 construct: expressed in transfected cells
Protocol: (§1) Based on the findings described above, we wondered whether AC1903—which is typically used as a TRPC5 inhibitor at concentrations of 30–100 μM in cellular assays ([29], [56])—might have limited selectivity for TRPC5 channels and whether its effect on intracellular G418 levels and PTC readthrough might be the consequence of inhibition of other or multiple targets. All well-characterized TRPC channel inhibitors reported to date modulate multiple TRP(C) channels ([34], [35], [36]). […] Because limited data for the selectivity of AC1903 are available in the public domain, we decided to profile AC1903 against a selection of calcium-permeable cation channels by intracellular calcium ([Ca^2+]i) recordings using well-characterized cell lines and TRP channel activators ([46], [57], [58]), and the Ca^2+ indicator Fura-2. In these assays, cells (HEK 293, HEK T-REx, or CHO) overexpressing the relevant ion channel protein and loaded with Fura-2 AM (a cell-permeable precursor of Fura-2) were preincubated with various concentrations of AC1903 or vehicle (DMSO) for 30 min. Then, changes in ratiometric fluorescence (from background) were recorded upon addition of the respective ion channel activator. […]

TRPC6:C6 = molecular target: T2, TRPC6:C6 (Homo sapiens, UniProt Q9Y210); test: [Ca2+]i recordings (Fura-2), TRPC6:C6 in HEK 293 cells; format: cell-based
T2 construct: expressed in transfected cells; host or cells: WT HEK 293 (transient)
T2 sequence (Q9Y210 whole entry): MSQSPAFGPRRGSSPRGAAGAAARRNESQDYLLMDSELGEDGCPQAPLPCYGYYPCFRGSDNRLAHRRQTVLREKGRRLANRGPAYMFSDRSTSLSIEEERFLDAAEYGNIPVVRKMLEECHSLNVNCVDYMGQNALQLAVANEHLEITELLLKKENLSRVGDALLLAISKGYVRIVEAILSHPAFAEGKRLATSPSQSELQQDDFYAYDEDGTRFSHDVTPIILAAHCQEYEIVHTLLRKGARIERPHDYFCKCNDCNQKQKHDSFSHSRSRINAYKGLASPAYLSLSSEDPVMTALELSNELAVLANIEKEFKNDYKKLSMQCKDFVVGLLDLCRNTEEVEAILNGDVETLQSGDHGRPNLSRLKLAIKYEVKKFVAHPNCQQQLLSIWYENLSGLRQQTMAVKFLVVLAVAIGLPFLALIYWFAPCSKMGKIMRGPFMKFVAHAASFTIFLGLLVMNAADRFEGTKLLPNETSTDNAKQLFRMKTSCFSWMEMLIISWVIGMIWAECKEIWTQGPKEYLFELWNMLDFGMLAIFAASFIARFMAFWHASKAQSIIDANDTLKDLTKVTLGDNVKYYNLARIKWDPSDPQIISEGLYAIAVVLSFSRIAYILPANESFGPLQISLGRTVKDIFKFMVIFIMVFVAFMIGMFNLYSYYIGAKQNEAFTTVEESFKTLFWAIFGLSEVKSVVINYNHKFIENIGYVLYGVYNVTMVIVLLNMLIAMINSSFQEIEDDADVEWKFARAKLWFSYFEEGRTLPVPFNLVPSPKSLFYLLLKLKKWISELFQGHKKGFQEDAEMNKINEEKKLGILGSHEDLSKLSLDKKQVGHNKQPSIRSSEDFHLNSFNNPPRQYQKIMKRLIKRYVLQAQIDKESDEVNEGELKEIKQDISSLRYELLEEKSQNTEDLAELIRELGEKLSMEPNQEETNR
Protocol: as §1

T1 sequence (Q13507 whole entry): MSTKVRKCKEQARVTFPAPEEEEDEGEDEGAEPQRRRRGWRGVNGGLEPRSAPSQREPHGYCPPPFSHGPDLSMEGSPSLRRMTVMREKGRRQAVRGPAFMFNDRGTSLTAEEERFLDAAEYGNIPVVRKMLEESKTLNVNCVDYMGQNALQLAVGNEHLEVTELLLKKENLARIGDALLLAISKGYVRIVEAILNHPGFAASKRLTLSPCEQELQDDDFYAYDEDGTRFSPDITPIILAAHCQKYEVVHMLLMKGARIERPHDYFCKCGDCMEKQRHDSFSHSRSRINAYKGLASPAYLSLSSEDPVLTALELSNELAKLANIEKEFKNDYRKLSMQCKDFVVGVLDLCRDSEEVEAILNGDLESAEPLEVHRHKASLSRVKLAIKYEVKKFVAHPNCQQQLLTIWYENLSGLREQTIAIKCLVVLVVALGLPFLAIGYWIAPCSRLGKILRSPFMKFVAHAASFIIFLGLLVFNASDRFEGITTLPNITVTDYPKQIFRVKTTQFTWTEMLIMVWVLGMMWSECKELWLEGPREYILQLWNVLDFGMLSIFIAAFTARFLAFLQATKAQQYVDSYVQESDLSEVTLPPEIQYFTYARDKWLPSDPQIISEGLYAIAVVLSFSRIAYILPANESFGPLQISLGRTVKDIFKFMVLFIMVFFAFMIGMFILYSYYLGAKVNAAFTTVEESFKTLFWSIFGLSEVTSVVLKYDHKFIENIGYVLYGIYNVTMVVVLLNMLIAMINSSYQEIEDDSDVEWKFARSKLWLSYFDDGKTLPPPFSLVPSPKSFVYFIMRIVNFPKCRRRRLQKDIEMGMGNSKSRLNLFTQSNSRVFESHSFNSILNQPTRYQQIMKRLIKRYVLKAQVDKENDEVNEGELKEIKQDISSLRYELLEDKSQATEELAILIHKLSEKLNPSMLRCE

- IC50 (TRPC3:C3; HEK T-REx, activator OAG (100 μM)): 5.2 µM
- Hill slope (TRPC3:C3; activator OAG): -1.4
- IC50 (TRPC6:C6; HEK 293, activator OAG (100 μM)): 15 µM
- Hill slope (TRPC6:C6; activator OAG): -1.5
Compound: c1ccc(Cn2c(NCc3ccco3)nc3ccccc32)cc1 [AC1903]
